In patent publication US6703388B2, “Nitrogen-containing tricyclic compounds and drugs containing the same” (Eisai Co., Ltd., priority 1996, dated 2004):
Like-named read-outs stand apart in the source and are kept apart here.

Assays:
[1] = test system: human basophils; experiment: Inhibition of mediator (histamine, peptide leukotriene) liberation from human basophils stimulated with mite antigen; format: cell-based; details: enzyme immunoassay
Outline: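 Dextran-separated leukocyte fraction containing basophils from heparinized human blood, in D-PBS(+) with 0.1% BSA, pretreated with compound 15 min at 37 °C, then challenged with mite antigen for 10 min. Released histamine and peptide leukotrienes in supernatant quantified by enzyme immunoassay.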

[2] = test system: RBL-2H3 cells; experiment: Inhibition of serotonin liberation from IgE-sensitized RBL-2H3 cells after antigen stimulation; format: cell-based, rat; details: Rattus norvegicus
Outline: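 Rat RBL-2H3 cells labelled with [3H]-serotonin and sensitized with IgE simultaneously, incubated with compound, then challenged with specific antigen. Inhibition derived from [3H]-serotonin released into medium relative to release without compound.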

[3] = molecular target: T1, tyrosine kinase of 72 kDa (Rattus norvegicus, UniProt Q64725); experiment: Inhibition of activation (phosphorylation) of tyrosine kinase of 72 kDa due to antigenic stimulation in RBL-2H3 cells; format: cell-based
T1 construct: endogenous in cells; host or cells: RBL-2H3 cells
T1 sequence (Q64725 whole entry): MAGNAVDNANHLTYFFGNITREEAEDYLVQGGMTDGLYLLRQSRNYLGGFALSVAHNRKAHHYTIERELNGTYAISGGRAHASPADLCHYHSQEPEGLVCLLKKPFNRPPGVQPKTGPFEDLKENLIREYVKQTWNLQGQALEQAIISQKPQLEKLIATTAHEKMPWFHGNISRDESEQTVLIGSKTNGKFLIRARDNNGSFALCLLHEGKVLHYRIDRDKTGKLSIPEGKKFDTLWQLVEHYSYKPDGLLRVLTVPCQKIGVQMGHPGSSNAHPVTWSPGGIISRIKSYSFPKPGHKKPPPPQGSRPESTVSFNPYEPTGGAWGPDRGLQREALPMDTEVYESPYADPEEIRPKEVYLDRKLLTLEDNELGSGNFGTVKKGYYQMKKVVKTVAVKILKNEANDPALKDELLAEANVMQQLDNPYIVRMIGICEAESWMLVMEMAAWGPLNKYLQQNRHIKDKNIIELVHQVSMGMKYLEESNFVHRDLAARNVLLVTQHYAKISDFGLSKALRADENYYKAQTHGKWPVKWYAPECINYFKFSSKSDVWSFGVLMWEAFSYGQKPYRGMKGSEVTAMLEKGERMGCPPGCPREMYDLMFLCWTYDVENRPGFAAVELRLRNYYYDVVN
Protocol: RBL-2H3 cells were incubated for 10 min together with a test compound in a PBS buffer containing 0.1% of BSA and 1 mM of calcium. Next, the cells were reacted with an antigen specific for the IgE receptor for 10 min. After the completion of the antigenic stimulation, the cells were allowed to stand in ice for 1 hr in a 10 mM phosphate buffer (pH 7.5) containing a lysis buffer (1% Triton X-100, 0.1% SDS, 0.5% sodium deoxycholate, 50 mM NaCl, 50 mM NaF, 1 mM phenylmethyl sulfonyl fluoride, 50 μg/ml eupeptin, 10 unit/ml aprotonin) and 0.1% of NaN3 followed by centrifugation to give a cell lysate. This lysate was diluted with a buffer for electrophoresis, heated (95° C., 5 min) and then electrophoresed on a 10% SDS-polyacrylamide gel. After the electrophoresis, the sample was electrically transcribed onto a 0.2 μm nitrocellulose membrane and treated with an anti-phosphotyrosine antibody for 1 hr. Then the inhibitory activity was evaluated by the coloring analysis through chemiluminescence.

[4] = molecular target: T2, IgE receptor γ chain and 72 kDa tyrosine kinase (Rattus norvegicus, UniProt Q64725); experiment: Inhibition of binding of IgE receptor γ chain to tyrosine kinase of 72 kDa (kinase phosphorylation in RBL-2H3 lysate or cytosol); format: biochemical; details: Conc. of Compd. 10 μM
T2 construct: The phosphorylation experiment of the 72 kDa tyrosine kinase contained in the lysate or cytosol; endogenous in cells; host or cells: RBL-2H3 cell lysate (1% NP-40) or cytosolic fraction
T2 sequence (Q64725 whole entry): as above
Protocol: RBL-2H3 cells which are a cell line generally used in studying IgE-mediated intracellular signal transduction in mast cells and basophils were used in this study. Tyrosine-phosphorylated peptide in the tyrosine activation motif (TAM) region in the IgE receptor γ chain was synthesized by Peptide Institute.
In the experiment, cell lysates or cytosolic fraction of RBL-2H3 cells were used. Cell lysates were prepared by solubilizing 1×10^7 to 5×10^7 cells with a solution containing various protease inhibitors and 1%-NP-40 as a solubilizer. Separately, the cells were homogenized in a Downs homogenizer and centrifuged at 50,000 rpm for 1 hr, and the resulting supernatant was used as the cytosol fraction of the cells. The concentration of the lysate or cytosol was adjusted to 1 mg protein/ml with an isotonic buffer. The phosphorylation experiment of the 72 kDa tyrosine kinase contained in the lysate or cytosol was carried out in the following manner.
An assay buffer [150 mM NaCl, 10 mM KCl, 20 mM Tris (pH 7.5), 0.6 mM MnCl2, 0.5 mM EGTA, 5 mM NaF, 1 mM sodium pyrophosphate and 1 mM sodium orthovanadate] containing the lysate or cytosol in an amount corresponding to […] of protein was incubated together with the compound 101 at 30° C. for 3 min. After adding […] of the peptide in the TAM region containing the phosphorylated tyrosine and […] of ATP, the incubation was further effected at 30° C. for 15 min. After the completion of the reaction, the sample was electrophoresed on a 10% […] gel and a tyrosine kinase of 72 kDa was separated. The activation of this kinase was confirmed by examining the phosphorylation of the tyrosine moiety in the kinase per se by western blotting with the use of anti-tyrosine phosphorylation antibody. Then the extent of the phosphorylation was numerically expressed by using an image analyzer and thus the tyrosine kinase phosphorylation inhibitory ratio of the compound 101 was determined

[5] = histamine, read-out: IC50 (μM) in mediator liberation from human basophils: histamine
[6] = peptide leukotriene, read-out: IC50 (μM) in mediator liberation from human basophils: leukotriene
[7] = [3H]-serotonin release, IgE-sensitized RBL-2H3 cells, antigen stimulation, read-out: IC50 (μM) in serotonin liberation from RBL-2H3 cells

| Inhibitory Strength (%) ([3]; Conc. of Compd. 3 μM) | Inhibitory Strength (%) [4] | Structure (SMILES) | IC50 [1, 5] | IC50 [1, 6] | IC50 [2, 7] | IC50 ([2]; RBL-2H3, read-out: IC50 (μM) in serotonin liberation from RBL-2H3 cells) | Inhibitory Strength (%) ([3]; Conc. of Compd. 10 μM) |
| --- | --- | --- | --- | --- | --- | --- | --- |
| 100% | 80% | Cc1ccc2c(c1C)N(CCCNCc1ccccc1)c1ccccc1[S+]2[O-] (stereo not drawn) [Example 22, 1,2-Dimethyl-10-(3-benzylaminopropyl)-phenothiazine-5-oxide] | 10 to 30 µM | 10 µM | 0.1 µM |  |  |
|  | 100% | Cc1ccc2c(c1C)N(CCCN1CCC(Cc3ccccc3)CC1)c1ccccc1[S+]2[O-] (stereo not drawn) [Example 127] | 10 to 30 µM | 10 µM | 2 µM |  | 100% |

| Structure (SMILES) | Inhibitory Strength (%) ([3]; Conc. of Compd. 3 μM) | Inhibitory Strength (%) [4] | IC50 [1, 5] | IC50 [1, 6] | IC50 [2, 7] | IC50 ([2]; RBL-2H3, read-out: IC50 (μM) in serotonin liberation from RBL-2H3 cells) | Inhibitory Strength (%) ([3]; Conc. of Compd. 10 μM) |
| --- | --- | --- | --- | --- | --- | --- | --- |
| Cc1ccc2c(c1C)N(CCCN1CCC(O)(c3ccccc3)CC1)c1ccccc1[S+]2[O-] (stereo not drawn) [Example 124] |  | 100% | 10 to 30 µM | 10 µM |  | 2 µM | 100% |
